Assay results as given in patent US20110142873A1 (priority 2006, published 2011).

Assays:
[1] = tested on: E7-specific CD8-positive T lymphocytes; set-up: species or system C57Bl/6 mice; conditions: mouse, in vivo
[2] = tested on: E7-expressing TC-1 tumors; set-up: species or system C57BL/6 mice; conditions: mouse, in vivo, sc
[3] = tested on: E7 and HspE7; set-up: species or system C57Bl/6 female mice; conditions: mouse, in vivo
[4] = tested on: E7-expressing TC-1.K tumor cells; experiment: Regression of large, established TC-1 tumors treated from day 28; set-up: species or system C57Bl/6 mice; conditions: mouse, in vivo

| Substance | biological activity of immune stimulant administered in the absence of HspE7 [1] | anti-tumor activity [2] | antibody response to E7 and HspE7 [3] | regression of large, established tumors [4] |
| --- | --- | --- | --- | --- |
| PolyI:C | did not display this activity | no effect on tumor growth |  |  |
| PolyICLC | did not display this activity |  | did not produce an antibody response | no regression |
